Source: patent US20230330254A1 (Regeneron Pharmaceuticals, Inc., priority 2022, published 2023)
Read-outs that look alike come from different tables or passages of the source. Where a SMILES comes first, the peptide text is derived from it. [ ]: non-standard residue; d: D form. The star is where a group is joined. Bip(2'-Et,4'-O(CH2)4N3) = CCc1cc(OCCCCN=[N+]=[N-])ccc1-c1ccc(C[C@H](N)C(=O)O)cc1; Malonyl(2,2-Me2,histaminyl) = CC(C)(C(=O)NCCc1cnc[nH]1)C(=O)*; Nva(5-(3,5-Me2Ph)) = Cc1cc(C)cc(CCC[C@H](N)C(=O)O)c1; Ala(1H-tetrazol-5-yl) = N[C@@H](Cc1nnn[nH]1)C(=O)O; αMePhe(2-F) = C[C@](N)(Cc1ccccc1F)C(=O)O

Assay: Plasma stability of payloads and linker-payloads, human plasma
Assay type: in vitro ADME
Conditions: plasma, 2 μM, 37° C.; for half-life at 2 µM: read-out: Human plasma stability assay T½ (converted)
Protocol: The plasma stability of payloads and linker payloads of the disclosure were measured. For the assay, pooled frozen plasma (human, mouse or monkey) was thawed in cold water or a 37° C. water bath prior to experiment. Plasma was centrifuged at 4000 rpm for 5 min if any clots were observed, they were subsequently removed. If required, the pH was adjusted to 7.4±0.1. For the preparation of compounds and positive controls, a 1 mM intermediate solution was prepared by diluting 10 μL of their stock solution with 90 μL DMSO; a 1 mM intermediate solution of the positive control (Propantheline) was prepared by diluting 10 μL of its stock solution with 90 μL ultrapure water. […] 98 μL of plasma was spiked with 2 μL of dosing solution (100 μM) to achieve the final concentration of 2 μM in duplicate. Samples were then incubated at 37° C. in a water bath. […] At each time point, 400 μL of stop solution (200 ng/mL tolbutamide plus 200 ng/mL labetalol in 50% ACN/MeOH) was added to precipitate protein and mixed thoroughly. Sample plates were then centrifuged at 4,000 rpm for 10 min. An aliquot of supernatant (50 μL) was transferred from each well and mixed with 100 μL ultrapure water. The samples were then shaken at 800 rpm for approximately 10 min before submitting for LC-MS/MS analysis.

CCc1cc(OCCCCn2cc(COCCOCCOCCOCCOCCOCCOCCOCCN)nn2)ccc1-c1ccc(C[C@H](NC(=O)[C@H](CC(=O)O)NC(=O)[C@H](CO)NC(=O)[C@@H](NC(=O)[C@](C)(Cc2ccccc2F)NC(=O)[C@@H](NC(=O)CNC(=O)[C@H](Cc2nn[nH]n2)NC(=O)C(C)(C)NC(=O)[C@@H](N)Cc2ccc(O)cc2)[C@@H](C)O)[C@@H](C)O)C(=O)N[C@@H](CCCc2cc(C)cc(C)c2)C(N)=O)cc1 [LP29, NH2-PEG8-triazole-P19]
half-life at 2 µM (pH 7.4, tested time C (3 days)): > 173 h

CCc1cc(OCCCCn2cc(COCCOCCOCCOCCOCCOCCOCCOCCC(=O)N[C@@H](CC(C)C)C(=O)N3CCC[C@@H]3C(=O)N[C@@H](CCC(=O)O)C(=O)N[C@H](C(=O)NCC(=O)NCC(=O)O)[C@@H](C)O)nn2)ccc1-c1ccc(C[C@H](NC(=O)[C@H](CC(=O)O)NC(=O)[C@H](CO)NC(=O)[C@@H](NC(=O)[C@](C)(Cc2ccccc2F)NC(=O)[C@@H](NC(=O)CNC(=O)[C@H](Cc2nn[nH]n2)NC(=O)C(C)(C)C(=O)NCCc2cnc[nH]2)[C@@H](C)O)[C@@H](C)O)C(=O)N[C@@H](CCCc2cc(C)cc(C)c2)C(N)=O)cc1 [LP34, GGT EPL-PEG8-triazole-P8]
half-life (tested time C (3 days), read-out: Human plasma stability assay T½): > 173 h

CCc1cc(OCCCCN=[N+]=[N-])ccc1-c1ccc(C[C@H](NC(=O)[C@H](CC(=O)O)NC(=O)[C@H](CO)NC(=O)[C@@H](NC(=O)[C@](C)(Cc2ccccc2F)NC(=O)[C@@H](NC(=O)CNC(=O)[C@H](Cc2nn[nH]n2)NC(=O)C(C)(C)C(=O)NCCc2cnc[nH]2)[C@@H](C)O)[C@@H](C)O)C(=O)N[C@@H](CCCc2cc(C)cc(C)c2)C(=O)O)cc1 [P41] ({Malonyl(2,2-Me2,histaminyl)}-[Ala(1H-tetrazol-5-yl)]GT[αMePhe(2-F)]TSD[Bip(2'-Et,4'-O(CH2)4N3)][Nva(5-(3,5-Me2Ph))]-OH)
half-life at 2 µM (pH 7.4, tested time A (1 day per footnote)): > 57.8 h
